Measured values published in PMC10980815, “Cell surface patching via CXCR4-targeted nanothreads for cancer metastasis inhibition” (Nature Communications, 2024).
Values joined by “and” are separate entries in the source; they are usually repeats but may differ in a detail not shown here. Equal values may be shown once. Ends that are not written are not given here.

What was measured:
[1] = system: MMP-9 and TGF-β; assay: Immunofluorescence of MMP-9 and TGF-β in tumor tissues; type: in vivo, female BALB/c mice
Experimental: To investigate the epithelial-mesenchymal transition process in tumor tissues, immunofluorescent staining of E-cadherin, vimentin, MMP-9, and TGF-β, along with flow cytometry analysis of E-cadherin and vimentin, were applied. For immunofluorescent staining of E-cadherin and vimentin, tumor slices were stained with CoraLite® Plus 647 anti-mouse CD324 (E-cadherin, 1:300 dilution) and anti-vimentin mouse monoclonal antibody (1:500 dilution) at 4 °C overnight, followed by staining with goat anti-mouse IgG H&L Alexa Fluor® 488 (1:1000 dilution). For flow cytometry analysis of E-cadherin and vimentin, single-cell suspensions of tumor tissues were stained with CoraLite® Plus 647 anti-mouse CD324 (E-cadherin, 1:300 dilution) or sequentially stained with anti-vimentin recombinant rabbit monoclonal antibody and goat anti-rabbit IgG H&L Alexa Fluor® 647 (1:1000 dilution), respectively. For immunofluorescent staining of MMP-9 and TGF-β, tumor slices were separately stained with MMP9 Rabbit pAb (1:500 dilution) or anti-TGF beta 1 recombinant rabbit monoclonal antibody (1:500 dilution), followed by staining with goat anti-rabbit IgG H&L Alexa Fluor® 647 (1:1000 dilution), respectively.

[2] = system: orthotopic 4T1 breast tumors; assay: Tumor-infiltrating CD8+ T lymphocytes, Tregs and MDSCs (flow cytometry); type: in vivo, female BALB/c mice; conditions: for CD3+CD8+ T cells (%) in tumor / CD11b+Gr1+ MDSCs (%) in tumor / Tregs (%) in CD4+ T cells: Supplementary Fig. 16a; for intratumoral Tregs and MDSCs: three i.v. cycles days 7, 14, 21, day 28, no PDT
Experimental: 4T1 cells (1 × 10^6 cells) were injected into the third mammary fat pad of female BALB/c mice (6–8-week). When tumor volumes reached nearly […] on day 7 after tumor inoculation, mice were randomly divided into 8 groups (n = 8 per group). For four groups without laser irradiation (−), mice were intravenously injected with the following samples: (1) saline on day 7, 14, 21, and 28, (2) P-PS on day 7, 14, 21, and 28, (3) P-BS-PS on day 7, 14, 21, and 28, or (4) P-BS-CM1 on day 7, 14, 21, and 28, followed by P-PS-CM2 on day 8, 15, 22, and 29 (5 mg/kg BS equivalence, CM1:CM2 1:1 mol%, 2.5 mg/kg PS equivalence), respectively. For four groups with laser irradiation (+), mice were treated with the same regimens and irradiated at 650 nm laser (580 mW/cm^2, 5 min) on day 9, 16, 23 and 30. Tumor volumes and mice survivals were recorded every other day. For the investigation of immune response and lung metastasis, 4T1 tumor-bearing female BALB/c mice (6–8-week, tumor volume~100 mm^3) were randomly divided into 8 groups (n = 5 per group) and given three rounds of above treatments. On day 28, lungs and tumors were harvested. lungs were fixed with Bouin’s solution. The pulmonary metastatic nodules were counted and analyzed by hematoxylin-eosin staining. Single-cell suspensions of tumor tissues were stained with anti-CD45-PerCP/Cy5.5 (1:300 dilution) and anti-calreticulin recombinant rabbit monoclonal antibody (1:500 dilution) at 4 °C for 1 h, and then stained with goat anti-rabbit IgG H&L Alexa Fluor® 647 (1:1000 dilution, 4 °C, 45 min), followed by flow cytometry analysis. ATP and HMGB1 concentrations in the supernatant of cell suspension were measured using a luciferase-based ATP assay kit and a mouse HMGB1 ELISA kit, respectively. Single-cell suspensions of tumors were stained with FITC anti-mouse CD3 antibody (1:300 dilution), PerCP/Cyanine5.5 anti-mouse CD4 antibody (1:300 dilution), anti-CD8α-APC (1:300 dilution), and anti-Foxp3-PE (1:300 dilution) for flow cytometry analysis of T cell subtypes (CD8^+ T cells, CD4^+ effector T cells, and Foxp3^+ regulatory T cells), and stained with PE anti-mouse/human CD11b antibody (1:300 dilution) and FITC anti-mouse Ly-6G/Ly-6C (Gr-1) antibody (1:300 dilution) for flow cytometry analysis of MDSCs (CD11b^+Gr1^+). Cytotoxic T cells in tumor tissues were investigated with immunofluorescent staining of IFN-γ and flow cytometry analysis using anti-IFN-γ-PE (1:300 dilution). For CD8-depletion assay, 4T1 tumor-bearing female BALB/c mice (6–8-week, tumor volume~100 mm^3) were randomly divided into 3 groups (n = 8 per group). Mice were intravenously given four doses of P-BS-CM1 on day 7, 14, 21 and 28, combined with P-PS-CM2 on day 8, 15, 22 and 29 (5 mg/kg BS equivalence, CM1:CM2 1:1 mol%, 2.5 mg/kg PS equivalence) in the presence or absence of InvivoMab anti-mouse CD8α (100 μg/mice). Mice were irradiated at 650 nm laser (580 mW/cm^2, 5 min) on day 9, 16, 23 and 30. Tumor volumes and mice survivals were recorded every other day.

[3] = system: 4T1 cells; assay: Transwell migration assay; type: cell-based, murine; conditions: stimulated 4T1 cells; individual replicates, n = 3
Experimental: Wound healing assay and transwell migration and invasion assay were conducted to investigate in vitro metastasis inhibition. For the wound healing assay, 4T1 cells (5 × 10^5 cells) were cultured in 12-well plates (NEST Biotechnology) as monolayer with more than 90% coverage. Sterile 200 μL pipette tips were used to scrape off the cells, generating a linear cell-free area in the middle of the well. Subsequently, cells were washed by PBS to remove debris. In the stimulated group, 4T1 cells were stimulated with CXCL12 (100 ng/mL) for 1 h. […] In the P-BS-CM1 → P-CM2 group, 4T1 cells underwent consecutive treatment with P-BS-CM1 for 1 h and P-CM2 for 1 h before CXCL12 stimulation (1 mg/mL BS equivalence, CM1:CM2, 1:1 mol%). Images of the wound were recorded by a microscope at 0 h and 24 h after CXCL12 stimulation, and the wound healing rate was calculated using Image J software. For the transwell migration and invasion assay, 4T1 cells (5 × 10^5 cells) were seeded in the non-coated upper chamber (Millipore, 8 μm) or GelNest™ matrigel (NEST Biotechnology) pre-coated upper chamber. The cells underwent the same treatment conditions as wound healing assay. After 24 h of treatment, migrated or invaded cells across the membrane were stained with 0.1% crystal violet, imaged by microscope, and quantified by absorbance at 570 nm after dissolution.

Row | Substance | Relative fluorescence intensity of MMP-9 in tumor tissues ([1]; replicate 1) | Relative fluorescence intensity of TGF-β in tumor tissues ([1]; replicate 1) | Relative fluorescence intensity of MMP-9 in tumor tissues ([1]; replicate 2) | Relative fluorescence intensity of TGF-β in tumor tissues ([1]; replicate 2) | Relative fluorescence intensity of MMP-9 in tumor tissues ([1]; replicate 3) | Relative fluorescence intensity of TGF-β in tumor tissues ([1]; replicate 3) | Relative fluorescence intensity of MMP-9 in tumor tissues ([1]; replicate 4) | Relative fluorescence intensity of TGF-β in tumor tissues ([1]; replicate 4) | Relative fluorescence intensity of MMP-9 in tumor tissues ([1]; replicate 5) | Relative fluorescence intensity of TGF-β in tumor tissues ([1]; replicate 5) | CD3+CD8+ T cells (%) in tumor ([2]; replicate 1 of 5) | CD11b+Gr1+ MDSCs (%) in tumor ([2]; replicate 1 of 5) | Tregs (%) in CD4+ T cells ([2]; replicate 1 of 5) | CD3+CD8+ T cells (%) in tumor ([2]; replicate 2 of 5) | CD11b+Gr1+ MDSCs (%) in tumor ([2]; replicate 2 of 5) | Tregs (%) in CD4+ T cells ([2]; replicate 2 of 5) | CD3+CD8+ T cells (%) in tumor ([2]; replicate 3 of 5) | CD11b+Gr1+ MDSCs (%) in tumor ([2]; replicate 3 of 5) | Tregs (%) in CD4+ T cells ([2]; replicate 3 of 5) | CD3+CD8+ T cells (%) in tumor ([2]; replicate 4 of 5) | further results
1 | LGASWHRPDKCCLGYQKRPLPA [Free BS] | 143.238 | 172.974 | 142.904 | 152.446 | 138.899 | 165.051 | 132.502 | 164.828 | 136.888 | 159.609 | 0.123% | 19.37% | 22.46% | 0.1188% | 18.11% | 19.38% | 0.1444% | 26.3% | 19.75% | 0.1085% | CD11b+Gr1+ MDSCs (%) in tumor ([2]; replicate 4 of 5): 21.21%; Tregs (%) in CD4+ T cells ([2]; replicate 4 of 5): 21.91%; CD3+CD8+ T cells (%) in tumor ([2]; replicate 5 of 5): 0.1016%; CD11b+Gr1+ MDSCs (%) in tumor ([2]; replicate 5 of 5): 17.61%; Tregs (%) in CD4+ T cells ([2]; replicate 5 of 5): 22.71%; intratumoral Tregs and MDSCs [2]: not affected; Migration content (%) [3]: 99.141% and 98.012% and 94.753%
2 | P-BS: HPMA copolymer-BS conjugate, ~6 BS grafts per polymer (LGASWHRPDKCCLGYQKRPLPA; not fully specified (residues 11, 12); also: about 6 peptides grafted on HPMA copolymer via cysteine-maleimide thioether links) | 108.085 | 144.596 | 120.005 | 130.014 | 113.377 | 139.806 | 115.997 | 146.777 | 97.611 | 131.749 | 0.1153% | 12.4% | 15.81% | 0.2531% | 14.84% | 15.31% | 0.2407% | 14.8% | 13.12% | 0.1577% | CD11b+Gr1+ MDSCs (%) in tumor ([2]; replicate 4 of 5): 14.66%; Tregs (%) in CD4+ T cells ([2]; replicate 4 of 5): 11.55%; CD3+CD8+ T cells (%) in tumor ([2]; replicate 5 of 5): 0.2259%; CD11b+Gr1+ MDSCs (%) in tumor ([2]; replicate 5 of 5): 15.36%; Tregs (%) in CD4+ T cells ([2]; replicate 5 of 5): 16.67%; intratumoral Tregs and MDSCs [2]: moderately decreased; Migration content (%) [3]: 52.3% and 41.02% and 47.1%
